Source: patent US7981997B2, “Growth factor which acts through ErbB-4 RTK” (Yeda Research And Development Co., priority 2000, dated 2011)

Assays:
[1] = tested on: D12 cells (32D co-expressing ErbB-1 and ErbB-2); assay: Long-term cell survival assay in the absence of IL-3 (MTT); format: cell-based; conditions: ligand 100 ng/ml, FIG. 3B
Description: FIG. 3b show survival effect of NRG-4 on ErbB-expressing derivatives of 32D cells. The indicated derivatives of 32D cells were incubated for various time intervals in the absence of IL-3. […] For control, cells were incubated with medium conditioned by IL-3-producing cells (open triangles), or with no factor (open circles). The extent of cell proliferation was determined daily by using the calorimetric MTT assay. The data presented are the mean±S.D. of 4 determinations. Note that co-expression of ErbB-1 and ErbB-2 (D12 cells) enabled cell survival in the absence of IL-3. The experiment was repeated twice with similar results.
The establishment of a series of interleukin 3 (IL-3)-dependent 32D myeloid cells expressing all combinations of ErbB proteins has been described (Alimandi et al., 1997; Pinkas-Kramarski et al., 1996; Shelly et al., 1998). Cells were maintained in RPMI medium with 10% fetal bovine serum (FBS) and dilute IL3-containing conditioned medium. […] Cell survival was determined 24 hours later, or after the indicated time intervals, by MTT assay, as previously described (Mosman, 1983). MTT (0.05 mg/ml) was incubated with the analyzed cells for 2 hours at 37 C. Living cells can transform the tetrazolium ring into dark blue formazan crystals, that can be quantified by reading the optical density at 540-630 nm after lysis of the cells with acidic isopropanol. […]

[2] = tested on: D1 cells (32D expressing ErbB-1); assay: 32D cell proliferation, 24-hour dose-response MTT assay; format: cell-based; conditions: 24-hour dose-response, without IL-3
Description: The indicated derivative lines of 32D cells were tested for cell proliferation using the [3-(4,5-dimethylthiazol-2-yl)-2,5-diphenyl]tetrazolium bromide (MTT) assay. […] The MT assay was performed 24 hours later. Results are presented as percent induction over the control untreated cells, and are the mean±S.D. of 4 determinations. Each experiment was repeated at least twice with similar findings.
The establishment of a series of interleukin 3 (IL-3)-dependent 32D myeloid cells expressing all combinations of ErbB proteins has been described (Alimandi et al., 1997; Pinkas-Kramarski et al., 1996; Shelly et al., 1998). Cells were maintained in RPMI medium with 10% fetal bovine serum (FBS) and dilute IL3-containing conditioned medium. Prior to proliferation assays, cells were washed three times in RPMI/FBS and plated (5×10^5 cells/ml; 0.1 ml/well) into 96-well flat-bottomed plates with the indicated liconcentrations or with IL-3 (1:1000 dilution of conditioned medium). Cell survival was determined 24 hours later, or after the indicated time intervals, by MTT assay, as previously described (Mosman, 1983). MTT (0.05 mg/ml) was incubated with the analyzed cells for 2 hours at 37 C. Living cells can transform the tetrazolium ring into dark blue formazan crystals, that can be quantified by reading the optical density at 540-630 nm after lysis of the cells with acidic isopropanol. […]

EGF: EGF (human, recombinant) purchased from Boehringer Mannheim (NSDSECPLSHDGYCLHDGVCMYIEALDKYACNCVVGYIGERCQYRDLKWWELR) [reference compound]
response of D12 cells (high basal proliferation activity) [1]: still responded | mitogenic response of D1 cells [2]: retained
